Assay results reported in EP0510151B1, “IMPROVED ANTI-PLAQUE COMPOSITIONS COMPRISING A COMBINATION OF MORPHOLINOAMINO ALCOHOL AND ANTI-MICROBIAL AGENT” (Pharmacia AB, priority 1990, dated 1992).

Assays:
Streptococcus mutans = test: Minimal inhibitory concentration (MIC) by broth dilution and checkerboard titration of combinations; assay type: cell-based
Experimental: (§1) The minimal inhibitory concentration (MIC) of the test compound is the minimum concentration of compound required to inhibit growth of the test microorganism. The MIC is determined by serially diluting the test solution through tubes of sterile broth. The tubes are inoculated and incubated at 37°C for 48 hours. At the end of the incubation time, growth is checked macroscopically. The lowest concentration of test compound to inhibit growth is the MIC. This technique is used to assess antimicrobial activity of combinations. The checkerboard is the pattern found by multiple combinations of two agents in concentrations equal to, above and below their minimal inhibitory concentration for the microorganism tested against. The checkerboard consists of columns which contain the same amount of one agent which is diluted along the x-axis and rows which each contain the same amount of the second agent diluted along the y-axis. Thus each tube is a unique combination of the two agents. […] A method for illustrating the effect of the combination of the two agents is obtained by plotting the MIC's of each agent alone and the MIC's for these agents in combination. Antimicrobial synergy is indicated if the MIC's for the agents in combination are lower than the MIC's for the agents alone.

[1] = tested on: Bacteroides melaninogenicus; test: as above; assay type: cell-based
Experimental: as §1

[2] = S. mutans, agent alone (other agent 0), Table IX
[3] = S. mutans, agent alone (other agent 0), Table VII
[4] = S. mutans, agent alone (other agent 0), Table X
[5] = S. mutans, agent alone (other agent 0), Table XI, comparative
[6] = S. mutans, agent alone (other agent 0), second table of Example XI, comparative
[7] = B. melaninogenicus, agent alone (other agent 0), Table IX
[8] = B. melaninogenicus, agent alone (other agent 0), Table VII
[9] = B. melaninogenicus, agent alone (other agent 0), Table X
[10] = B. melaninogenicus, agent alone (other agent 0), Table XI, comparative
[11] = B. melaninogenicus, agent alone (other agent 0), second table of Example XI, comparative

For `CCCC(CCC)CCCC1COCCN1CCO.Cl` (stereo not drawn) [3-(4-propylheptyl)-4-(2-hydroxyethyl) morpholine hydrochloride], the “Minimum Inhibitory Concentration” value (Streptococcus mutans; S. mutans (ATCC 2517S), agent alone (other agent 0), Table VIII) was 200 milligrams/liter, the “Minimum Inhibitory Concentration” value (Streptococcus mutans; [2]) was 200 milligrams/liter and the “Minimum Inhibitory Concentration” value (Streptococcus mutans; [3]) was 200 miligrams/liter. For the same compound, the “Minimum Inhibitory Concentration” value (Streptococcus mutans; [4]) was 200 milligrams/liter, the “Minimum Inhibitory Concentration” value (Streptococcus mutans; [5]) was 200 milligrams/liter and the “Minimum Inhibitory Concentration” value (Streptococcus mutans; [6]) was 200 milligrams/liter. For the same compound, the “Minimum Inhibitory Concentration” value (Streptococcus mutans; S. mutans, in combination with 0.25 milligrams/liter hexitidine (row with 50 morpholinoamino alcohol HCl)) was 50 milligrams/liter, the “Minimum Inhibitory Concentration” value (Streptococcus mutans; S. mutans, in combination with 0.25 milligrams/liter hexitidine (row with 100 morpholinoamino alcohol HCl)) was 100 milligrams/liter and the “Minimum Inhibitory Concentration” value (Streptococcus mutans; S. mutans, in combination with 0.5 milligrams/liter domiphen bromide) was 100 milligrams/liter. For the same compound, the “Minimum Inhibitory Concentration” value (Streptococcus mutans; S. mutans, in combination with 1.0 milligrams/liter domiphen bromide) was 50 milligrams/liter, the “Minimum Inhibitory Concentration” value (Streptococcus mutans; S. mutans, in combination with 2 miligrams/liter 1-0-dodecyl-rac-glycerol) was 100 miligrams/liter and the “Minimum Inhibitory Concentration” value (Streptococcus mutans; S. mutans, in combination with 6 miligrams/liter 1-0-dodecyl-rac-glycerol) was 4 miligrams/liter. For the same compound, the “Minimum Inhibitory Concentration” value (Streptococcus mutans; S. mutans, in combination with 10 milligrams/liter amyl-m-cresol (row with 50 morpholinoamino alcohol HCl)) was 50 milligrams/liter, the “Minimum Inhibitory Concentration” value (Streptococcus mutans; S. mutans, in combination with 10 milligrams/liter amyl-m-cresol (row with 100 morpholinoamino alcohol HCl)) was 100 milligrams/liter and the “Minimum Inhibitory Concentration” value (Streptococcus mutans; S. mutans, in combination with 50 milligrams/liter 2, 4-dichloro-alcohol (row with 50 morpholinoamino alcohol HCl)) was 50 milligrams/liter. The “Minimum Inhibitory Concentration” value (Streptococcus mutans; S. mutans, in combination with 50 milligrams/liter 2, 4-dichloro-alcohol (row with 100 morpholinoamino alcohol HCl)) was 100 milligrams/liter, the Minimum Inhibitory Concentration (Streptococcus mutans; S. mutans, in the absence of the dodecyl glycerol) was 200 milligrams per liter and the “Minimum Inhibitory Concentration” value ([1]; B. melaninogenicus (J18M2), agent alone (other agent 0), Table VIII) was 200 milligrams/liter. For the same compound, the “Minimum Inhibitory Concentration” value ([1]; B. melaninogenicus (J18M2), in combination with 0.003 milligrams/liter cetyl pyridinium chloride) was 100 milligrams/liter, the “Minimum Inhibitory Concentration” value ([1]; B. melaninogenicus (J18M2), in combination with 0.006 milligrams/liter cetyl pyridinium chloride) was 50 milligrams/liter and the “Minimum Inhibitory Concentration” value [1, 7] was 200 milligrams/liter. The “Minimum Inhibitory Concentration” value [1, 8] was 200 miligrams/liter, the “Minimum Inhibitory Concentration” value [1, 9] was 200 milligrams/liter and the “Minimum Inhibitory Concentration” value [1, 10] was 200 milligrams/liter. The “Minimum Inhibitory Concentration” value [1, 11] was 200 milligrams/liter, the “Minimum Inhibitory Concentration” value ([1]; B. melaninogenicus, in combination with 0.125 milligrams/liter hexitidine) was 100 milligrams/liter and the “Minimum Inhibitory Concentration” value ([1]; B. melaninogenicus, in combination with 0.25 milligrams/liter hexitidine) was 50 milligrams/liter. For the same compound, the “Minimum Inhibitory Concentration” value ([1]; B. melaninogenicus, in combination with 2 miligrams/liter 1-0-dodecyl-rac-glycerol) was 20 miligrams/liter, the “Minimum Inhibitory Concentration” value ([1]; B. melaninogenicus, in combination with 2.5 milligrams/liter amyl-m-cresol) was 100 milligrams/liter and the “Minimum Inhibitory Concentration” value ([1]; B. melaninogenicus, in combination with 6 miligrams/liter 1-0-dodecyl-rac-glycerol) was 4 miligrams/liter. The “Minimum Inhibitory Concentration” value ([1]; B. melaninogenicus, in combination with 6.25 milligrams/liter domiphen bromide) was 100 milligrams/liter, the “Minimum Inhibitory Concentration” value ([1]; B. melaninogenicus, in combination with 10 milligrams/liter amyl-m-cresol) was 50 milligrams/liter and the “Minimum Inhibitory Concentration” value ([1]; B. melaninogenicus, in combination with 12.5 milligrams/liter domiphen bromide) was 50 milligrams/liter. For the same compound, the “Minimum Inhibitory Concentration” value ([1]; B. melaninogenicus, in combination with 100 milligrams/liter 2, 4-dichloro-alcohol (row with 50 morpholinoamino alcohol HCl)) was 50 milligrams/liter, the “Minimum Inhibitory Concentration” value ([1]; B. melaninogenicus, in combination with 100 milligrams/liter 2, 4-dichloro-alcohol (row with 100 morpholinoamino alcohol HCl)) was 100 milligrams/liter and the Minimum Inhibitory Concentration ([1]; B. melaninogenicus, in the absence of the dodecyl glycerol) was 200 milligrams per liter.
In the case of `CCCCCCCCCCCCOCC(O)CO` (racemic) [1-0-dodecyl-rac-glycerol, reference compound], the “Minimum Inhibitory Concentration” value (Streptococcus mutans; [3]) is reported as 10 miligrams/liter, the “Minimum Inhibitory Concentration” value (Streptococcus mutans; S. mutans, in combination with 4 miligrams/liter morpholinoamino alcohol HCl) is reported as 6 miligrams/liter and the “Minimum Inhibitory Concentration” value (Streptococcus mutans; S. mutans, in combination with 100 miligrams/liter morpholinoamino alcohol HCl) is reported as 2 miligrams/liter. The “Minimum Inhibitory Concentration” value [1, 8] was 10 miligrams/liter, the “Minimum Inhibitory Concentration” value ([1]; B. melaninogenicus, in combination with 4 miligrams/liter morpholinoamino alcohol HCl) was 6 miligrams/liter and the “Minimum Inhibitory Concentration” value ([1]; B. melaninogenicus, in combination with 20 miligrams/liter morpholinoamino alcohol HCl) was 2 miligrams/liter.
In the case of `CCCCCCCCCCCC[N+](C)(C)CCOc1ccccc1` [domiphen bromide, reference compound], the “Minimum Inhibitory Concentration” value (Streptococcus mutans; [2]) is reported as 1.0 milligrams/liter, the “Minimum Inhibitory Concentration” value (Streptococcus mutans; S. mutans, in combination with 50 milligrams/liter morpholinoamino alcohol HCl, Table IX) is reported as 1.0 milligrams/liter and the “Minimum Inhibitory Concentration” value (Streptococcus mutans; S. mutans, in combination with 100 milligrams/liter morpholinoamino alcohol HCl, Table IX) is reported as 0.5 milligrams/liter. The “Minimum Inhibitory Concentration” value [1, 7] was 50 milligrams/liter, the “Minimum Inhibitory Concentration” value ([1]; B. melaninogenicus, in combination with 50 milligrams/liter morpholinoamino alcohol HCl, Table IX) was 12.5 milligrams/liter and the “Minimum Inhibitory Concentration” value ([1]; B. melaninogenicus, in combination with 100 milligrams/liter morpholinoamino alcohol HCl, Table IX) was 6.25 milligrams/liter.
In the case of `OCc1ccc(Cl)cc1Cl` [2,4-dichloro-alcohol, 2,4-dichlorobenzyl alcohol, reference compound], the “Minimum Inhibitory Concentration” value (Streptococcus mutans; [6]) is reported as 50 milligrams/liter, the “Minimum Inhibitory Concentration” value (Streptococcus mutans; S. mutans, in combination with 50 milligrams/liter morpholinoamino alcohol HCl, the 12th table) is reported as 50 milligrams/liter and the “Minimum Inhibitory Concentration” value (Streptococcus mutans; S. mutans, in combination with 100 milligrams/liter morpholinoamino alcohol HCl, the 12th table) is reported as 50 milligrams/liter. For the same compound, the “Minimum Inhibitory Concentration” value [1, 11] was 100 milligrams/liter, the “Minimum Inhibitory Concentration” value ([1]; B. melaninogenicus, in combination with 50 milligrams/liter morpholinoamino alcohol HCl, the 12th table) was 100 milligrams/liter and the “Minimum Inhibitory Concentration” value ([1]; B. melaninogenicus, in combination with 100 milligrams/liter morpholinoamino alcohol HCl, the 12th table) was 100 milligrams/liter.
With `CCCCCc1ccc(C)cc1O` [amyl-m-cresol, reference compound] the “Minimum Inhibitory Concentration” value (Streptococcus mutans; [5]) was 10 milligrams/liter, the “Minimum Inhibitory Concentration” value (Streptococcus mutans; S. mutans, in combination with 50 milligrams/liter morpholinoamino alcohol HCl, Table XI) was 10 milligrams/liter and the “Minimum Inhibitory Concentration” value (Streptococcus mutans; S. mutans, in combination with 100 milligrams/liter morpholinoamino alcohol HCl, Table XI) was 10 milligrams/liter. The “Minimum Inhibitory Concentration” value [1, 10] was 10 milligrams/liter, the “Minimum Inhibitory Concentration” value ([1]; B. melaninogenicus, in combination with 50 milligrams/liter morpholinoamino alcohol HCl, Table XI) was 10 milligrams/liter and the “Minimum Inhibitory Concentration” value ([1]; B. melaninogenicus, in combination with 100 milligrams/liter morpholinoamino alcohol HCl, Table XI) was 2.5 milligrams/liter.
In the case of `CCCCC(CC)CN1CN(CC(CC)CCCC)CC(C)(N)C1` (stereo not drawn) [hexitidine, hexetidine, reference compound], the “Minimum Inhibitory Concentration” value (Streptococcus mutans; [4]) is reported as 1.0 milligrams/liter, the “Minimum Inhibitory Concentration” value (Streptococcus mutans; S. mutans, in combination with 50 milligrams/liter morpholinoamino alcohol HCl, Table X) is reported as 0.25 milligrams/liter and the “Minimum Inhibitory Concentration” value (Streptococcus mutans; S. mutans, in combination with 100 milligrams/liter morpholinoamino alcohol HCl, Table X) is reported as 0.25 milligrams/liter. For the same compound, the “Minimum Inhibitory Concentration” value [1, 9] was 1.0 milligrams/liter, the “Minimum Inhibitory Concentration” value ([1]; B. melaninogenicus, in combination with 50 milligrams/liter morpholinoamino alcohol HCl, Table X) was 0.25 milligrams/liter and the “Minimum Inhibitory Concentration” value ([1]; B. melaninogenicus, in combination with 100 milligrams/liter morpholinoamino alcohol HCl, Table X) was 0.125 milligrams/liter.
